Reference: US20150065416A1, “NOVEL DRUG COMBINATION” (FAB PHARMA SAS, priority 2013, published 2015)
≈ marks a conversion by molar mass, not a printed value. Read-outs that look alike come from different tables or passages of the source.

Experiments:
[1] = system: A. baumannii isolates; assay: Checkerboard testing (compound (I)/antibacterial agent interaction, FIC index); type: cell-based, Acinetobacter baumannii
Procedure: Checkerboard interaction studies were performed using 5 isolates from each of the sub-groups and time kill studies were performed using 3 isolates from each sub-group.
Checkerboards (20 isolates, 5 per sub-group) were prepared so as to contain multiple concentrations of compound (I) with different additional antibacterial agents (amikacin, gentamicin, colistin, meropenem and tobramycin) as follows:
Serial two-fold dilutions of the antimicrobial agents alone or in combination in wells of 96 well microtiter plates were inoculated with the appropriate inoculum so that each well contained approximately 4-5×10^4 CFU/ml. Plates were incubated at 35° C. for 16-20 hours. Combination concentrations were tested between 0.25×MIC and 2×MIC. Growth and sterility controls were also included in each plate.
Synergy, indifference and antagonism were calculated based upon the use of the fractional inhibitory concentration (FIC) indices as described by Pillai, Moellering & Eliopoulos (2005) whereby:
Synergism=FIC index of ≦0.5 Indifference=FIC index >1 but ≦4 Additivity >0.5 to 1 Antagonism=FIC index of >4
Checkerboard studies were carried out as described in General Procedures using twenty different A. baumannii isolates with 5 per sub-group of: susceptible, amikacin-resistant, colistin-resistant and meropenem-resistant.

[2] = system: A. baumannii CIP 5377, CIP 7034, AYE, SAN, RCH; assay: Antimicrobial susceptibility testing (MIC, broth microdilution, EUCAST; Example 5); type: cell-based, Acinetobacter baumannii; conditions: Acinetobacter baumannii
From the text: A. baumannii CIP 5377 (ATCC® 17978): low cephalosporinase producing strain, susceptible to meropenem and amikacin, isolated in an infected patient
A. baumannii CIP 7034: low cephalosporinase producing strain, susceptible to meropenem and amikacin A. baumannii AYE ATCC® BAA1710™: extended spectrum beta-lactamase producing strain susceptible to meropenem and resistant to amikacin
A. baumannii SAN-94040 (SAN): cephalosporinase-overproducing strain, susceptible to meropenem and intermediate to amikacin and resistant to fluoroquinolones, isolated from blood cultures of an intensive care patient with nosocomial pneumonia from North Africa (Algeria).
A. baumannii RCH-69: cephalosporinase producing strain; low susceptibility to imipenem and resistant to amikacin.

[3] = system: A. baumannii SAN-94040; assay: Mouse model of A. baumannii pneumonia, Study 2: bacterial counts in blood and tissues; type: in vivo, Acinetobacter baumannii
Procedure: The bacterial inoculum was prepared in order to obtain a suspension containing 10^8 CFU/mL of Acinetobacter baumannii in saline.
Experimentations were performed with six-week old female C3H/HeN mice (18-20 g, Breeding Centre JANVIER (Ile saint Genest Mayenne 53)) because of their particular susceptibility to Acinetobacter baumannii and the reproducibility of the results (inbreeding in the breed). Each mouse was individually marked and housed in cages containing five animals/cage under ventilated and controlled (temperature and humidity) atmosphere.
The mice were rendered transiently neutropenic by 2 intra-peritoneal (IP) injections of 150 μL of cyclophosphamide (Endoxan® 150 mg/kg) 4 (D-4) and 3 (D-3) days before the Acinetobacter baumannii inoculation (Day 0). This transient immunosuppression was sufficient to facilitate the development of the A. baumannii pneumonia while allowing the recovery of the neutrophil influx 2 (Day 2) days after inoculation in order to avoid or limit a systemic bacterial dissemination.
Mice were anesthetized by a mixture of oxygen and isoflurane. The bacterial inoculation was performed on Day 0 by intra-tracheal installation using an endotracheal catheter (50 μl of the suspension, thus 5.106 CFU). The positioning of the catheter in the trachea (instead of in the oesophagus) was checked by a “ring test”. The bacterial count in lungs was checked for all study groups by sacrificing one mouse immediately after inoculation.
Sample time points: T0 (pre-inoculation), T24h (post inoculation), T48h and T72h.
Blood samples preparation: At each time point, three mice were sacrificed per group by cervical dislocation.
Tissue samples preparation: At each time point, three mice were sacrificed per group. Lungs, kidneys, liver and spleen were collected after the blood sampling and cervical dislocation. Tissues were wiped with a sterile gauze to remove blood contaminant outside. Tissues were then be weighed, finely ground and plated on agar for quantitative culture. Cultures were incubated at 37° C. for 18 to 24 hours.
The aim of this experiment was to assess the bacterial counts in blood, lungs, spleen, liver and kidneys of transiently neutropenic female C3H/HeN mice administered, 3 hours post-inoculation of A. baumannii SAN-94040 via intra-tracheal route, with compound (I) via intra-peritoneal route at 200 mg/kg 3 times daily (every 8 hours) for 1 day alone and in combination with meropenem at 50 mg/kg 3 times daily (every 8 hours) for 1 day or with amikacin at 18 mg/kg 3 times daily (every 8 hours) for 1 day.
All results concerning bacterial counts were expressed from Day 0 (inoculation) to 72 hours post-inoculation (Day 3). Bacterial counts on Day 3 were carried out only on surviving mice and results were more objectionable for interpretation. On Day 0, only bacterial count in lung of control mice was performed. Bacterial cell counts were determined as set out in the General Procedures.

[4] = Acinetobacter baumannii, A. baumannii 441142, colistin-resistant, read-out: MIC
[5] = Acinetobacter baumannii, A. baumannii 441160, colistin-resistant, read-out: MIC
[6] = Acinetobacter baumannii, A. baumannii 463996, colistin-resistant, read-out: MIC
[7] = Acinetobacter baumannii, A. baumannii 466936, colistin-resistant, read-out: MIC
[8] = Acinetobacter baumannii, A. baumannii 618649, meropenem-resistant, read-out: MIC
[9] = Acinetobacter baumannii, A. baumannii 625917, meropenem-resistant, read-out: MIC
[10] = Acinetobacter baumannii, A. baumannii 628760, susceptible, read-out: MIC
[11] = Acinetobacter baumannii, A. baumannii 637723, amikacin-resistant, read-out: MIC
[12] = Acinetobacter baumannii, A. baumannii 638115, amikacin-resistant, read-out: MIC
[13] = Acinetobacter baumannii, A. baumannii 650216, meropenem-resistant, read-out: MIC
[14] = Acinetobacter baumannii, A. baumannii 655932, amikacin-resistant, read-out: MIC
[15] = Acinetobacter baumannii, A. baumannii 661954, amikacin-resistant, read-out: MIC
[16] = Acinetobacter baumannii, A. baumannii 667848, meropenem-resistant, read-out: MIC
[17] = Acinetobacter baumannii, A. baumannii 668116, susceptible, read-out: MIC
[18] = Acinetobacter baumannii, A. baumannii 668239, amikacin-resistant, read-out: MIC
[19] = Acinetobacter baumannii, A. baumannii 670348, susceptible, read-out: MIC
[20] = Acinetobacter baumannii, A. baumannii 671050, meropenem-resistant, read-out: MIC
[21] = Acinetobacter baumannii, A. baumannii 672190, susceptible, read-out: MIC
[22] = Acinetobacter baumannii, A. baumannii 674340, susceptible, read-out: MIC
[23] = A. baumannii AYE, read-out: MIC
[24] = A. baumannii CIP 5377, read-out: MIC
[25] = A. baumannii CIP 7034, read-out: MIC
[26] = A. baumannii RCH, read-out: MIC
[27] = A. baumannii SAN, read-out: MIC
[28] = Study 2, 24 h, compound (I) 200 mg/kg Q8h, amikacin 18 mg/kg, meropenem 50 mg/kg Q8h I.P. for 1 day
[29] = Acinetobacter baumannii, A. baumannii 517303, colistin-resistant, read-out: MIC

Structure (SMILES) | MIC [1, 4] [µg/mL] | MIC [1, 5] [µg/mL] | MIC [1, 8] [µg/mL] | MIC [1, 9] [µg/mL] | MIC [1, 10] [µg/mL] | MIC [1, 11] [µg/mL] | MIC [1, 12] [µg/mL] | MIC [1, 13] [µg/mL] | MIC [1, 14] [µg/mL] | MIC [1, 15] [µg/mL] | MIC [1, 16] [µg/mL] | MIC [1, 19] [µg/mL] | MIC [1, 20] [µg/mL] | MIC [1, 21] [µg/mL] | MIC [1, 22] [µg/mL] | MIC [2, 23] [µg/mL] | MIC [2, 24] [µg/mL] | MIC [2, 25] [µg/mL] | MIC [2, 26] [µg/mL] | MIC [2, 27] [µg/mL] | further results
NCC[C@H](O)C(=O)N[C@@H]1C[C@H](N)[C@@H](O[C@H]2O[C@H](CN)[C@@H](O)[C@H](O)[C@H]2O)[C@H](O)[C@H]1O[C@H]1O[C@H](CO)[C@@H](O)[C@H](N)[C@H]1O [amikacin] | > 1020 | > 1020 | 4 | 4 | 8 | 256 | 1020 | 4 | 512 | 512 | 4 | 8 | 8 | 4 | 4 | 32 (≈ 54.6 µM) | 2 (≈ 3.42 µM) | 8 (≈ 13.7 µM) | > 32 | 4 (≈ 6.83 µM) | MIC [1, 6]: 8 µg/mL; MIC [1, 7]: 64 µg/mL; MIC ([1]; Acinetobacter baumannii, A. baumannii 517303, colistin-resistant): 128 µg/mL; MIC [1, 17]: 2 µg/mL; MIC [1, 18]: > 1020 µg/mL; lung bacterial counts [3, 28]: 1.33E+09 CFU/g Lung; lung bacterial counts ([3]; Study 2, 48 h): 4.41E+08 CFU/g Lung
CCc1cc(O)c(Oc2ccc(C(N)=O)cc2F)cc1F [compound (I), 4-(4-ethyl-5-fluoro-2-hydroxyphenoxy)-3-fluorobenzamide] | 4 | 8 | 2 | 4 | 2 | 2 | 4 | 8 | 4 | 4 | 4 | 2 | 4 | 8 | 2 | 2 (≈ 6.82 µM) | 2 (≈ 6.82 µM) | 1 (≈ 3.41 µM) | 2 (≈ 6.82 µM) | 2 (≈ 6.82 µM) | MIC ([1]; A. baumannii 441142, colistin-resistant): 2 µg/mL; MIC ([1]; A. baumannii 441160, colistin-resistant): 4 µg/mL; MIC ([1]; A. baumannii 463996, colistin-resistant): 2 µg/mL; MIC ([1]; A. baumannii 466936, colistin-resistant): 16 µg/mL; MIC ([1]; A. baumannii 618649, meropenem-resistant): 4 µg/mL; MIC ([1]; A. baumannii 638115, amikacin-resistant): 8 µg/mL; MIC ([1]; A. baumannii 655932, amikacin-resistant): 2 µg/mL; MIC ([1]; A. baumannii 661954, amikacin-resistant): 8 µg/mL; MIC ([1]; A. baumannii 667848, meropenem-resistant): 8 µg/mL; MIC ([1]; A. baumannii 670348, susceptible): 4 µg/mL; MIC ([1]; A. baumannii 671050, meropenem-resistant): 8 µg/mL; MIC ([1]; A. baumannii 672190, susceptible): 4 µg/mL; MIC ([1]; A. baumannii 674340, susceptible): 1 µg/mL; MIC [1, 6]: 4 µg/mL; MIC [1, 7]: 8 µg/mL; MIC [1, 29]: 4 µg/mL; MIC ([2]; 5 isolates of A. baumannii, read-out: MICs ranging): 1 to 2 µg/mL (≈ 3.41 to 6.82 µM); lung bacterial counts [3, 28]: 4.72E+09 CFU/g Lung; lung bacterial counts ([3]; Study 2, 48 h): 3.75E+05 CFU/g Lung
C[C@@H](O)[C@H]1C(=O)N2C(C(=O)O)=C(S[C@@H]3CN[C@H](C(=O)N(C)C)C3)[C@H](C)[C@H]12 [meropenem] | 64 | 64 | 64 | 64 | 0.25 | 1 | 2 | 64 | 16 | 1 | 32 | 0.5 | 32 | 0.5 | 0.5 | 1 (≈ 2.61 µM) | 0.25 (≈ 0.652 µM) | 1 (≈ 2.61 µM) | 32 (≈ 83.4 µM) | 1 (≈ 2.61 µM) | MIC ([1]; Acinetobacter baumannii, A. baumannii 463996, colistin-resistant): 0.125 µg/mL; MIC ([1]; Acinetobacter baumannii, A. baumannii 466936, colistin-resistant): 128 µg/mL; MIC [1, 29]: 1 µg/mL; MIC [1, 17]: 0.5 µg/mL; MIC [1, 18]: 16 µg/mL; blood bacterial counts ([3]; Study 2, 24 h): 0 CFU/mL Blood; lung bacterial counts [3, 28]: 3.75E+04 CFU/g Lung; blood bacterial counts ([3]; Study 2, 48 h): 0 CFU/mL Blood; kidney bacterial counts ([3]; Study 2, 48 h): 0 CFU/g Kidneys; liver bacterial counts ([3]; Study 2, 48 h): 0 CFU/g Liver; lung bacterial counts ([3]; Study 2, 48 h): 5.56E+06 CFU/g Lung; blood bacterial counts ([3]; Study 2, 72 h): 0 CFU/mL Blood; kidney bacterial counts ([3]; Study 2, 72 h): 0 CFU/g Kidneys; liver bacterial counts ([3]; Study 2, 72 h): 0 CFU/g Liver; spleen bacterial counts ([3]; Study 2, 72 h): 0 CFU/g Spleen; lung bacterial counts ([3]; Study 2, 72 h, surviving mice only): 1.00E+00 CFU/g Lung
